Test results reported in publication PMC10400981, “An expandable, modular de novo protein platform for precision redox engineering” (Proceedings of the National Academy of Sciences of the …, 2023).

Tests used:
[1] = molecular target: T1, m4D2; experiment: binding titration; 2D/3D NMR of the complex; design: species or system synthetic construct
T1 construct: monoheme redesign of 4D2

[2] = molecular target: T1, m4D2; experiment: hemin titration of apo-m4D2 by UV/visible; nondenaturing MS ([…]); assay type: binding, synthetic construct
[3] = molecular target: T2, 4D2; experiment: […] Å crystal structure (MAD); hemin titration by UV/visible; nondenaturing MS; assay type: binding, synthetic construct
T2 construct: single-chain de novo four-helix bundle, 112 amino acids after TEV cleavage

Kd [2] [nM]	Kd [3] [nM]	SMILES	Kd [1] [nM]
		CC1=C(C)C2=[N+]3C1=Cc1c(C)c(CCC(=O)O)c4[n]1[Fe-]31[n]3c(c(C)c(C)c3=CC3=[N+]1C(=C4)C(CCC(=O)O)=C3C)=C2 (stereo not drawn) [Fe(III) DMDPIX]	25
4.2	< 5	C=CC1=C(C)C2=Cc3c(C=C)c(C)c4[n]3[Fe][n]3c(c(C)c(CCC(=O)O)c3=CC3=NC(=C4)C(C)=C3CCC(=O)O)=CC1=N2 [heme B]	
